According to publication PMC6072878, “Brasilianoids A–F, New Meroterpenoids From the Sponge-Associated Fungus Penicillium brasilianum” (Frontiers in Chemistry, 2018):
Read-outs that look alike come from different tables or passages of the source.

Key:
[1] = system: NO production in LPS-induced RAW 264.7 macrophages; test: Inhibition of LPS induced NO production in RAW264.7 macrophages (Griess reagent); assay type: cell-based, mouse
Experimental: All compounds were assayed by measuring the inhibitory effects on NO production induced by LPS in mouse macrophage RAW 264.7 cells. The RAW 264.7 cells were seeded in each well of a 96-well plate at a concentration of 5 × 10^5 cells/ml in DMEM medium containing 10% fetal bovine serum, 2 mmol/l glutamine, 100 U/ml penicillin, and 100 μg/ml streptomycin. After incubation at 37°C in a humidified atmosphere of 5% CO2 air for 12 h, cells were treated with LPS (1 μg/ml) and compounds ([…], and compound was dissolved in DMSO to dilute until the final DMSO concentration <0.1%, v/v), then incubation for 24 h at 37°C. NO production was determined by measuring the quantity of nitrite in the culture medium by the Griess reagent. Aminoguanidine was selected as a positive control. A 50 μl of the supernatant of culture medium was mixed with 100 μl of the Griess reagent. Using nitrite to generate a standard curve, nitrite production was measured by a microplate reader at 540 nm. Cell viability was examined by the MTT method (Wu et al., [2016]). The compounds with inhibitory rate more than 50% at a dose of 50 μg/ml were further detected in the gradient concentrations to calculate IC50 values. […]
(§1) 7. Assay for inhibition toward nitric oxide production in RAW264.7 macrophages The experiment was conducted according to a literature procedure.1 Murine monocytic RAW264.7 cells grown in 96-well cell culture plates (2 × 10^5 cells/well) and pretreated with serial concentrations of the compounds 1‒8 for 30 min, followed by stimulation with LPS (1 μg/mL) under a humidified atmosphere with 5% CO2 at 37°C. After 24 h, the NO production of the supernatant was determined by adding the 100 μL of Griess reagent. Subsequently, the MTT
(§2) [3-(4,5-dimethylthiazol-2-yl)-2,5-diphenyltetrazolium bromide] reduction2 was used to evaluate the cell viability, and results were expressed as the mean value of triplicate determinations. The positive control was aminoguanidine.2 […]

[2] = Cell viability of RAW264.7 macrophages (MTT method); assay type: cell-based, mouse; conditions: mouse
Experimental: as §1, §2

[3] = Cytotoxic activity toward tumor cell line SMMC7721; assay type: cell-based; conditions: human, SMMC7721 tumor cells
[4] = Cytotoxic activity toward tumor cell line U937; assay type: cell-based; conditions: human, U937 tumor cells
[5] = Cytotoxic activity toward tumor cell line A549; assay type: cell-based; conditions: human, A549 tumor cells
[6] = system: HBV virus in HepG2.2.15 cells; test: In vitro anti-HBV effects (HBV DNA, real time PCR); assay type: cell-based; conditions: 10 μM
Experimental: HepAD38 cells were cultured with DMEM in 48-well plate at 1 × 10^5 cells/well for 24 h, then treated with 10 μM of each compound for 72 h. After 4 days, the cells were washed with precooled PBS for 2 times. HBV progeny DNA of HepAD38 cells were extracted using QIAamp DNA Blood Mini kit (Biomiga) according to the manufacturer's instruction. Total DNA was reversely transcribed using PrimeScript RT reagent Kit (Takara, Dalian, China). PCR amplification was performed on an StepOne Plus real time PCR system (Applied Biosystems, Foster City, CA) using the SYBR Green Master Mix (Applied Biosystems, Foster City, CA). All experiments were performed in triplicate, and the relative levels of assayed HBV DNA were calculated with the delta–delta CT method using lamivudine as a positive control, and normalized to non-treated control. […]
8. Assay for in vitro anti-HBV effects
HepG2. 2. 15 cells were cultured with DMEM in 48-well plate at 1×10^5 cells/well for 24 h, then treated with 10 µM of compounds for 72 h. At d 4, these cells were washed 2 times with precooled PBS, and treated with 10 µM of compounds for 72 h.
HBV progeny DNA of HepG2. 2. 15 cells were extracted using QIAamp DNA Blood Mini kit (Biomiga) according to the manufacturer's instruction. Then total DNA was reverse transcribed using PrimeScript RT reagent Kit (Takara, Dalian, China). The primers were designed and synthesized by Takara, and the sequences of the primers […]
PCR amplification was performed on an StepOne Plus real time PCR system (Applied Biosystems, Foster City, CA) using the SYBR Green Master Mix (Applied Biosystems, Foster City, CA). All experiments were performed in triplicate, and the relative levels of assayed HBV DNA were calculated with the […]
delta‒delta CT method using lamivudine expressions as positive control, and normalized to non-treated control. […]
(Takara, Dalian, China). The primers were designed and synthesized by Takara, the […]
performed on an StepOne Plus real time PCR system (Applied Biosystems, Foster City, CA) using the SYBR Green Master Mix (Applied Biosystems, Foster City, CA). […]

[7] = system: HaCaT cells; test: Protection against UVB-induced cell damage in HaCaT cells (MTT assay); assay type: cell-based; conditions: HaCaT cells, UVB 30 mJ/cm^2, 20 μM, 24 h; UVB alone 70% of normal group
Experimental: HaCaT cells were seeded at 5 × 10^5 cells per well in 6-well plates and incubated under starvation conditions for 24 h using serum-free MEM. HaCaT cells were exposed to UVB irradiation (UVB lamp: SUV-1000, Sigma-China) at a dose of 30 mJ/cm^2. After UVB irradiation, DMEM medium containing 1 (20 μM) or epigallocatechin gallate (20 μM) was added and the cells were incubated for 24 h, and then the MTT assay was performed.

[8] = Mus musculus, RAW264.7, 24 h, LPS 1 μg/ml, 24 h
[9] = RAW264.7 macrophages, RAW264.7, MTT, Table 3, read-out: CC50 (μM) Cytotoxicity
[10] = RAW264.7 macrophages, Table S9 of the supplement, read-out: CC50 (M), 50% cytotoxic concentration
[11] = Mus musculus, RAW264.7, Table S9 of the supplement, read-out: IC50 (M), 50% inhibitory concentration
[12] = Mus musculus, RAW264.7, read-out: IC50 (M), 50% inhibitory concentration
[13] = RAW264.7, MTT, Table 3, read-out: CC50 (μM) Cytotoxicity
[14] = Table S9 of the supplement, read-out: CC50 (M), 50% cytotoxic concentration

Structure (SMILES)	inhibition at 50 µg/mL [1, 8] [%]	CC50 at 24 h [2, 9] [µM]	CC50 at 24 h [2, 10] [µM]	IC50 [3] [µM]	IC50 [4] [µM]	IC50 [5] [µM]	IC50 [1, 11] [µM]	inhibitory rate of DNA expression of the HBV virus [6] [%]	further results
N=C(N)NN [Aminoguanidine, reference compound]	–	–	–	–	–	–	–	–	IC50 ([1]; LPS 1 μg/ml, 24 h, Table 3, read-out: IC50 (μM) NO): 7.62 ± 0.08 µM
C=C1C2(C)CC3C4(C)C=CC(=O)OC(C)(C)C4CCC3(C)C13C(=O)OC(C)C3(O)C2=O [Compound 2, (5aS, 5bS, 7R, 8aR, 9S, 11aR, 11bS, 13aS)-8a-hydroxy-1,1,5a, 7,9, 11b-hexamethyl-14-methylene-5a, 5b, 6,7,8a, 9, 11b, 12, 13, 13a-decahydro-1H, 11H-7,11a-methanofuro[3″,4″:3′,4′]cyclohepta[1′,2′:3,4]benzo[1,2-c]oxepine-3,8,11-trione]	58	> 100	> 50	> 10	> 10	> 10	–	–	inhibition toward NO production (in words) ([1]; LPS-induced RAW 264.7 macrophages): moderate inhibition; IC50 ([1]; Mus musculus, RAW264.7, 24 h, LPS 1 μg/ml, 24 h, Table 3, read-out: IC50 (μM) NO): 37.7 ± 5.25 µM
C=C1[C@@]2(C)C[C@H]3[C@](C)(CCC(=O)OC)[C@@H](C(C)(C)O)CC[C@]3(C)[C@@]13C(=O)O[C@H](C)[C@@]3(O)C2=O [Compound 4, methyl 3-((3R, 3aR, 5R, 6aS, 7S, 8S, 10aS, 10bR)-3a-hydroxy-8-(2-hydroxypropan-2-yl)-3,5,7,10a-tetramethyl-11-methylene-1,4-dioxodecahydro-1H,3H-5,10b-methanobenzo[3,4]cyclohepta[1,2-c]furan-7-yl)propanoate]	32	> 100	> 50	> 10	> 10	> 10	> 50	15	–
C=C1[C@@]2(C)C[C@H]3[C@](C)(CCC(=O)OC)[C@@H](C(C)(C)O)CC[C@]3(C)[C@@]13C(=O)O[C@@H](C)[C@@]3(O)C2=O [Compound 5, methyl 3-((3S, 3aR, 5R, 6aS, 7S, 8S, 10aS, 10bR)-3a-hydroxy-8-(2-hydroxypropan-2-yl)-3,5,7,10a-tetramethyl-11-methylene-1,4-dioxodecahydro-1H,3H-5,10b-methanobenzo[3,4]cyclohepta[1,2-c]furan-7-yl)propanoate]	36	> 100	> 50	> 10	> 10	> 10	> 50	10	–
C=C1C2(C)CC3C4(C)C(O)C5CC(C)(OC5=O)C4CCC3(C)C13C(=O)OC(C)C3(O)C2=O [Compound 6, (1R, 4S, 5R, 5aS, 5bR, 7R, 8aR, 9R, 11aR, 11bS, 13aS)-5,8a-dihydroxy-1,5a,7,9,11b-pentamethyl-14-methylenedodecahydro-1H,11H-1,4:7,11a-dimethanofuro[3″,4″:3′,4′]cyclohepta[1′,2′:3,4]benzo[1,2-c]oxepine-3,8,11-trione]	–	–	–	> 10	> 10	> 10	–	–	IC50 [1, 12]: > 50 µM; CC50 at 24 h [2, 13]: > 100 µM; CC50 at 24 h [2, 14]: > 50 µM
C=C1[C@@]2(C)C[C@H]3[C@](C)(CCC(=O)OC)[C@@H](C(C)(C)O)CC[C@]3(C)[C@]1(C(=O)OC)C(=O)[C@@](C)(O)C2=O [Compound 7, preaustinoid D]	28	> 100	> 50	> 10	> 10	> 10	> 50	–	–
C=C1[C@@]2(C)C[C@H]3[C@]4(C)C=CC(=O)OC(C)(C)[C@H]4CC[C@]3(C)[C@]1(C(=O)OC)C(=O)[C@@](C)(O)C2=O [Compound 8, preaustinoid A2]	–	–	–	> 10	> 10	> 10	–	–	IC50 [1, 12]: > 50 µM; CC50 at 24 h [2, 13]: > 100 µM; CC50 at 24 h [2, 14]: > 50 µM
O=C(O[C@@H]1Cc2c(O)cc(O)cc2O[C@@H]1c1cc(O)c(O)c(O)c1)c1cc(O)c(O)c(O)c1 [epigallocatechin gallate, reference compound]	–	–	–	–	–	–	–	–	cell viability after UVB irradiation [7]: 75%
Nc1ccn([C@@H]2CS[C@H](CO)O2)c(=O)n1 [lamivudine, reference compound]	–	–	–	–	–	–	–	75	–
